Experimental data taken from patent publication EP2181589A1, “Neurotoxic sterol glycosides” (Shaw, Christopher Ariel, priority 2008, dated 2010).
“And” between values parts separate entries of the source, which are not always exact repeats. Identical values can stand only once. “Also recorded” adds a separate entry of the source. Marks after values point to notes of the source that are not given here.

Tests used:
Assay type in all cases: in vivo, CD-1 mice
[1] = tested on: Phosphorylated tau aggregates; experiment: Tau immunohistochemistry; set-up: key to Phosphorylated tau aggregates: - = not present; + = present; settings: for Phosphorylated tau aggregates: SG-fed
Procedure: (§1) The synthetic SG was mixed with finely ground Purina Chow mouse pellets (Mouse Diet™, Purina) to create the experimental pellets with a SG content of 1000 µg per pellet. Dry materials were blended with a sterile silicon spatula. For every 5 g of standard feed, 2.5 mL of doubly-distilled water (dd)H2O was added and the dough was kneaded and round up into pellets. A single sterol glucoside containing pellet was placed in the feeding tray each morning before the addition of regular mouse chow (ad libitum). All experimental pellets were entirely consumed by the mice each day. Control mice were fed standard mouse chow pellets of identical weight with no additives. SG feeding was conducted daily for 15 weeks and mice were behaviorally monitored until sacrifice at 35 weeks (time point 1) or 52 weeks (time point 2).
(§2) Tissue-mounted slides were processed for fluorescence microscopy as follows: Sections were rinsed in coplin jars for 45 minutes at room temperature (RT) in three changes of PBS. Sections were then incubated at RT for 30 minutes in a blocking permeabilization solution made of 5% normal goat serum (NGS), 5% normal rabbit serum (NRS) or 5% BlokHen II (Aves Labs, Inc., Tigard, OR), 0.05% Triton X-100 and PBS. Subsequently, the blocking solution was tipped off and the slides were rinsed in PBS for 2 minutes. […]

[2] = tested on: Dopaminergic cells Tyrosine Hydroxylase; experiment: Tyrosine hydroxylase immunohistochemistry; settings: SG-fed animals, either time-point
Procedure: as §1, §2

Heat shock protein-70 = Heat shock protein-70 immunofluorescence; settings: for Anti-Hsp-70 (VHLsc) / Anti-Hsp-70 (VHTsc): SG-fed vs control; for Anti-Hsp-70 (VHLsc): ventral horn lumbar spinal cord; for Anti-Hsp-70 (VHTsc): ventral horn thoracic spinal cord
Procedure: as §1
(§3) Tissue-mounted slides were processed for fluorescence microscopy as follows: Sections were rinsed in coplin jars for 45 minutes at room temperature (RT) in three changes of PBS. Sections were then incubated at RT for 30 minutes in a blocking permeabilization solution made of 5% normal goat serum (NGS), 5% normal rabbit serum (NRS) or 5% BlokHen II (Aves Labs, Inc., Tigard, OR), 0.05% Triton X-100 and PBS. Subsequently, the blocking solution was tipped off and the slides were rinsed in PBS for 2 minutes. Sections were then incubated overnight in a humidified chamber at 4°C with a PBS buffered solution that contained 1% NGS or 1% NRS, 1% bovine serum albumin (BSA) and one of the following primary antibodies: (a) rabbit anti-human/mouse ATF-3 (H-90) IgG (polyclonal, 1:500; Santa Cruz Biotechnology, Inc., Santa Cruz, CA), (b) anti-activated caspase-3 IgG (monoclonal, 1:250; Chemicon International, Temecula, CA) (see FIGURE 9), (c) goat antihuman/ mouse choline acetyl transferase (ChAT) IgG (polyclonal, 1:100; Chemicon International, Temecula, CA) (see FIGURE 6), (d) rabbit anti-mouse glial fibrillary acidic protein IgG (polyclonal, 1:250; GeneTex Inc., San Antonio, TX) (see FIGURE 7), (e) rabbit antihuman/ mouse ionized calcium binding adaptor molecule 1 (IBA-1) IgG (polyclonal, 1:500; Wako Pure Chemical Industries, Ltd, Richmond, VA), (f) mouse anti-human/mouse clone AT8 PHF-1 Tau (monoclonal, 1:200; Pierce Biotechnology Inc., Rockford, IL), (g) rabbit anti-human/mouse TAR DNA-binding protein 43 (TDP43) (1:100; ProteinTech Group Inc., Chicago, IL) (See FIGURE 14), (h) chicken anti-human/mouse β-tubulin 3 (TuJ1 antigen) (polyclonal, 1:100, Aves Labs, Inc., Tigard, OR), (i) rabbit anti-mouse tyrosine hydroxylase (polyclonal, 1:500, Chemicon International, Temecula, CA or polyclonal 1:1000, Affinity BioReagents, Golden, CO) (FIGURE 10), (j) rabbit anti human/mouse anti-pJunser73 IgG (polyclonal, 1:200; Chemicon International, Temecula, CA), (k) rabbit anti human/mouse anti-HSP-70 IgG (polyclonal, 1:200; Chemicon International, Temecula, CA), or (1) rabbit anti human/mouse anti-HSP-25 IgG (polyclonal, 1:100; Chemicon International, Temecula, CA). In each experiment, additional slides were incubated with the primary antibody and the secondary antibody omitted or with secondary antibody and primary antibody omitted to test for nonspecific staining. Where appropriate, positive control slides (Alzheimer's disease patient entorhinal cortex, obtained from Drs. Claudia Schwab and Patrick McGeer of the Kinsmen Laboratory, University of British Columbia, Vancouver, BC, Canada) were also processed as above for comparison. Following overnight incubation with the primary antibody, slides were rinsed for 45 minutes at RT in three changes of PBS. […]

[3] = tested on: Phosphorylated TDP-43 aggregates; experiment: TDP-43 immunofluorescence; set-up: key to Phosphorylated TDP-43 aggregates: - = not present; + = present; settings: for Phosphorylated TDP-43 aggregates: SG-fed
Procedure: as §1
as §3, with “comparison.” for “comparison. Following overnight incubation with the primary antibody, slides were rinsed for 45 minutes at RT in three changes of PBS.”

[4] = SG-fed group, time-point 2, 52 wk
[5] = SG-fed group over time, 35 to 52 wk

SMILES: CCC(C=CC(C)C1CCC2C3CC=C4CC(OC5OC(CO)C(O)C(O)C5O)CCC4(C)C3CCC12C)C(C)C (stereo not shown) [SG]
- Phosphorylated tau aggregates, animals affected [1, 4]: 2/8
- Phosphorylated Tau aggregates ([1]; SG-fed mice, none in non-treated mice): induced accumulation of phosphorylated tau; also recorded: observed
- Phosphorylated tau aggregates ([1]; time-point 1, 35 wk): -
- Phosphorylated tau aggregates ([1]; time-point 2, 52 wk): +
- decrease in TH optical density, striata [2]: not significant
- Anti-Hsp-70 Lsc (Heat shock protein-70; [5]): Anti-Hsp-70 Lsc (SG-fed group over time) (ns, p=0.1223)
- Anti-Hsp-70 Tsc (Heat shock protein-70; [5]): Anti-Hsp-70 Tsc (SG-fed group over time) (ns, p=0.8319)
- Anti-Hsp-70 (VHLsc) (Heat shock protein-70; time-point 1, 35 wk): Anti-Hsp-70: +1036%***
- Anti-Hsp-70 (VHTsc) (Heat shock protein-70; time-point 1, 35 wk): Anti-Hsp-70: (ns, p=0.9697)
- Anti-Hsp-70 (VHLsc) (Heat shock protein-70; time-point 2, 52 wk): Anti-Hsp-70: +425%* (VHLsc)
- Anti-Hsp-70 (VHTsc) (Heat shock protein-70; time-point 2, 52 wk): Anti-Hsp-70: (ns, p=0.2793)
- pathologic phosphorylated TDP-43-containing aggregates in the lumbar spinal cord ([3]; SG-fed animals): increased
- translocation of TDP-43 ([3]; SG-fed animals at 35 weeks): No abnormal translocation
- Phosphorylated TDP-43 aggregates / TDP-43 pathology, animals affected [3, 4]: Two of eight and 2/8
- Phosphorylated TDP-43 aggregates ([3]; time-point 1, 35 wk): -
- Phosphorylated TDP-43 aggregates ([3]; time-point 2, 52 wk): +
